Source: patent EP0097023A2, “Prostaglandin D derivatives, process for their preparation and compositions containing them” (ONO PHARMACEUTICAL CO., LTD., priority 1982, dated 1983)
Like-named read-outs stand apart in the source and are kept apart here.

Experiments:
[1] = test system: human myelogenous leukemic cells (HL-60); assay: Inhibition of proliferation of human myelogenous leukemic cells (HL-60), Trypan Blue staining; format: cell-based; settings: for Surviving Cell Number: stationary culture at 37°C for 4 days, start 1 x 10^5 cells/ml, control 44.0 x 10^4; for inhibition at 5 µg/mL: Homo sapiens
Procedure: The test on the inhibition of the proliferation of human myelogenous leukemic cells was conducted by a well known method. The human myelogenous leukemic cells (HL-60) were added to an RPMI culture solution containing 10% bovine fetal serum, the number of cells in the culture solution was adjusted to 1 x 10^5 cells/ml, a solution in ethanol of the compound under test was added to give a concentration of 5µg/ml, and the mixture was subjected to stationary culture at 37°C for 4 days. As a control, a culture solution containing 0.1% of ethanol was similarly cultured. The culture solutions were stained by the Trypan Blue staining method and the surviving cell number was measured to determine the degree of inhibition relative to the control.

[2] = Blood pressure depression after intravenous administration to the allobarbital-anesthetized dog; format: in vivo
[3] = Acute toxicity by intraperitoneal administration; settings: mouse, in vivo, ip; intraperitoneal administration in mice
Procedure: The acute toxicity of the compounds of the present invention was >50 mg/kg by intraperitoneal administration, so that the prostaglandin D derivatives of the present invention may be considered to be sufficiently safe and suitable for medical use.

[4] = 96 h, HL-60, 5 µg/ml, 37°C for 4 days, relative to control (0.1% ethanol), b55 gives the same values in %, read-out: Degree of Inhibition
[5] = HL-60, concentration of 5 µg/ml, read-out: inhibited the proliferation of the leukemic cells
[6] = dosage of 10 µg/kg animal body weight

| Structure (SMILES) | Surviving Cell Number ([1]; HL-60, 5 µg/ml) | inhibition at 5 µg/mL [1, 4] [%] | inhibition at 5 µg/mL [1, 5] [%] | blood pressure depression ([2]; dosage of 100 µg/kg animal body weight) | LD50 [3] [mg/kg] | blood pressure depression [2, 6] [mm Hg] | duration of blood pressure depression effect [2, 6] [min] |
| --- | --- | --- | --- | --- | --- | --- | --- |
| CCCCCC=CC=C1C(=O)C=CC1CC=CCCCC(=O)O (stereo not shown) [(5Z,9Z,14EZ)-11-oxoprosta-5,9,12,14-tetraenoic acid] | 3 x 10^4 cells/ml | 93.2 | 93.2 | did not cause blood pressure depression | 78 | – | – |
| CCCCC[C@H](O)/C=C/[C@H]1C(=O)C[C@H](O)[C@@H]1C/C=C\CCCC(=O)O [PGD2, prostaglandin D2] | 19.5 x 10^4 cells/ml | 55.6 | 55.6 | – | – | 26 | 6 |
